Experimental findings from patent publication US20100227797A1, “USE OF CYCLOLIGNANS FOR THE TREATMENT OF TYPE 2 DIABETES AND AS CONTRACEPTIVES” (AXELAR AB, priority 2006, published 2010) are described below.

“And” between values parts separate entries of the source, which are not always exact repeats. Equal entries are not always repeated. Marks after values point to notes of the source that are not given here.

A short description of experiment [1]: Assay of blood glucose in mice after one week picropodophyllin treatment. The format is in vivo, SCID mice. The settings on record: 20 mg/kg/12 h i.p. As for the experimental part:
Ten weeks old SCID mice were treated with PPP (20 mg/kg/12 h) intraperitoneally using DMSO as vehicle. Control mice were treated with vehicle only. Three mice were treated in each group. After treatment for 7 days, the mice were sacrificed 4 h after the last injections. Blood samples were taken and the concentration of glucose in the serum was determined by a dry slide technique using Vitros 950 Chemistry System. In this experiment, healthy SCID mice were treated with picropodophyllin by intraperitoneal injections twice daily, the dose being 20 mg/kg/12 h. The control group was treated with the vehicle only (totally per day: 20 μL DMSO). Each group included 3 mice.

Experiment [2] has as its system macular degeneration lesions. Nature of the experiment: Laser induction of macular degeneration lesions, mouse model. The format is in vivo, C57Bl/6 mice. Also on record: Area of macular degeneration: scale not given here. As for the experimental part:
To induce macular degeneration lesions adult C57Bl/6 mice were anesthetized and three laser spots were placed in fundus flavimaculatus of the choroidea with a krypton red laser (614 nm, […], 0.05 second, 200 mW). The mice were then treated with PPP (20 mg/kg/12 h) intraperitoneally using DMSO as vehicle for two weeks. Control mice were treated with vehicle only. Twenty mice were treated in each group. Two weeks after the laser treatment, the animals were perfused with 3% FITC-conjugated high-molecular-weight dextran, sacrificed and choroidal flat mounts were prepared. Flat-mounts were examined with fluorescence microscopy Axioskop microscope. Macular degeneration lesions were identified as FITC-perfused vessels. Image-Pro Plus software was used to measure the area of each CNV lesion. Data were recorded as area of macular degeneration lesions (μm^2). Macular degeneration is the leading cause of vision loss. Macular degeneration lesions were induced in 40 adult C57Bl/6 mice by laser. Twenty animals received intraperitoneal (i.p.) injections of picropodophyllin (PPP; 20 mg/kg/12 h) for 2 weeks. Controls received i.p. injections of vehicle. Two weeks after the laser treatment the animals were sacrificed and choroidal flat mounts were prepared. Flat-mounts were examined with fluorescence microscopy. Image-Pro Plus software was used to measure the area of each CNV lesion.

Experiment [3] relates to ovulation. Nature of the experiment: Effect on ovulation in a mouse model. The note with it: female mice. Format: in vivo. The method, then:
Female mice were treated with picropodophyllin (PPP; 20 mg/kg/12 h, given intrapritoneally) on days −1 and 0 of mating. The vaginal plug was checked on the next morning. Six animals from each group were sacrificed 4 days after mating. The organs collected were ovaries, uterus, liver and spleen for biochemical analysis.

Experiment [4] has as its system implantation of the embryo. In words: Effect on implantation in a mouse model. Format: in vivo, mice. The settings on record: 20 mg/kg/12 h i.p., day 3 to 6 after plug. As for the experimental part: The animals were put for mating and the vaginal plug was checked on the next morning. Six female mice positive for vaginal plug were treated with picropodophyllin (20 mg/kg/12 h, given intraperitoneally) and six with vehicle (controls) from day 3 to 6 after the plug. They were sacrificed on day 9 after ovulation. The organs collected were ovaries, uterus, liver and spleen for biochemical analysis.

For the molecule `COc1cc([C@@H]2c3cc4c(cc3[C@H](O)[C@H]3COC(=O)[C@@H]23)OCO4)cc(OC)c1OC` [PPP, picropodophyllin], the “Effect on blood glucose levels” value in experiment [1] (SCID mice, one week, compared to controls) is reported as “decreased the blood glucose levels”. Further, the “Glucose level in serum” value in experiment [1] (individual SCID mice, 7 days, sampled 4 h after last injection, 20 mg/kg) was 4.5 mM (2×) and 5.7 mM. The “Glucose level in serum, mean” value in experiment [1] (mean of 3 SCID mice, 7 days, vehicle control mean 7.0) is recorded as 4.9 mM. Also, in experiment [2] (mean, C57Bl/6 mice, 20 mg/kg/12 h i.p. for 2 weeks after laser, vehicle mean 2.565), the “Area of macular degeneration” value is on record as “Mean: 1.753 μm^2”. For the same molecule, in experiment [2] (versus vehicle, 20 mg/kg/12 h i.p. for 2 weeks, statistically significant), the “Decrease in macular degeneration lesion area” value was found to be 32%. In addition, the “Number of mice with positive plug” value in experiment [3] (20 mg/kg/12 h i.p. on days -1 and 0 of mating, n = 36, vehicle 3 of 6) is “n = 0”. This molecule displayed a Percent ovulated mice in experiment [3] (20 mg/kg/12 h i.p. on days -1 and 0 of mating, vehicle 50%) of 0%. Moreover, in experiment [3] (20 mg/kg/12 h i.p., P=0.005919, Fishers exact test), the “Inhibition of ovulation” value is recorded as “did not ovulate at all”. In addition, in experiment [4] (no statistical significance), the “Effect on implantation of the embryo” value is listed as “interferes negatively with implantation”. Moreover, the Number of pregnancies in experiment [4] (6 plug-positive female mice, sacrificed day 9, vehicle 4 of 6, not statistically significant) is recorded as 2*.
